In series [1] the test system is patient-derived lung adenocarcinoma xenografts. As to the kind of experiment: Patient-derived xenograft (PDX) model. The following applies: single treatment; LiPyDau 0.5 mg/kg, DOX 2 mg/kg, paclitaxel 12 mg/kg; 7 days. Type of series: in vivo, NSG mice. In general terms: In xenograft studies the graft and the host belong to different species.
Description: A piece from the tumor tissue was transplanted subcutaneously into the right flank and propagated in NOD.Cg-Prkdc^scid Il2rg^tm1Wjl/SzJ (NSG) mice for 7 months. After the xenografted tumor reached 1000 mm^3, tumor pieces were retransplanted subcutaneously into the right flank of 20 additional NSG mice, which were given a single treatment with various chemotherapeutics or LiPyDau. Every treatment group consists of 5 animals. After daily monitoring of the tumor volume for one week, the mice were sacrificed and the cytotoxicity of the treatments was investigated on tissue slices by image analysis.
For treatment, tumor pieces were engrafted subcutaneously.
The subject of a further series is OVCAR-5. As to conditions: OVCAR-5, NCI-60 database, sulforhodamine B; read-out: Cytotoxic IC50; cited from earlier work.
A further series deals with HCT-15. The following applies: HCT-15, NCI-60 database, sulforhodamine B; read-out: Cytotoxic IC50; cited from earlier work.
In the next series the test system is EKVX. The following applies: NCI-60 database, sulforhodamine B, read-out: Cytotoxic IC50; cited from earlier work.
Another series concerns SW-620. As to conditions: SW-620, NCI-60 database, sulforhodamine B; read-out: Cytotoxic IC50; cited from earlier work.
For a further series, the system named is HL-60(TB). As to conditions: NCI-60 database, sulforhodamine B, read-out: Cytotoxic IC50; cited from earlier work.
The next series deals with SK-MEL-2. As to conditions: SK-MEL-2, NCI-60 database, sulforhodamine B; read-out: Cytotoxic IC50; cited from earlier work.
Another series concerns OVCAR-3. As to conditions: OVCAR-3, NCI-60 database, sulforhodamine B; read-out: Cytotoxic IC50; cited from earlier work.
A further series deals with UO-31. As to conditions: UO-31, NCI-60 database, sulforhodamine B; read-out: Cytotoxic IC50; cited from earlier work.
Another series deals with MDA-MB-231. As to conditions: MDA-MB-231, NCI-60 database, sulforhodamine B; read-out: Cytotoxic IC50; cited from earlier work.
Another series concerns NCI-60 cell lines. As to the kind of experiment: NCI DTP NCI-60 cell line screen database (sulforhodamine B), panel. As to conditions: Homo sapiens. It is filed as cell-based.
A further series concerns MCF7. The following applies: MCF7, NCI-60 database, sulforhodamine B; read-out: Cytotoxic IC50; cited from earlier work.
A further series has as its system HCC-2998. The following applies: HCC-2998, NCI-60 database, sulforhodamine B; read-out: Cytotoxic IC50; cited from earlier work.
A further series deals with HT29. As to conditions: HT29, NCI-60 database, sulforhodamine B; read-out: Cytotoxic IC50; cited from earlier work.
Another series deals with HOP-62. The following applies: HOP-62, NCI-60 database, sulforhodamine B; read-out: Cytotoxic IC50; cited from earlier work.
The subject of the next series is PC-3. The following applies: PC-3, NCI-60 database, sulforhodamine B; read-out: Cytotoxic IC50; cited from earlier work.
A further series relates to PANC-1. As to conditions: PANC-1, from Varbanov et al. (2017), PrestoBlue; read-out: Cytotoxic IC50; cited from earlier work.
Another series concerns OVCAR-8. The following applies: OVCAR-8, NCI-60 database, sulforhodamine B; read-out: Cytotoxic IC50; cited from earlier work.
In the next series the test system is NCI-H226. The following applies: NCI-H226, NCI-60 database, sulforhodamine B; read-out: Cytotoxic IC50; cited from earlier work.
For a further series, the system named is KM12. As to conditions: KM12, NCI-60 database, sulforhodamine B; read-out: Cytotoxic IC50; cited from earlier work.
A further series deals with T-47D. As to conditions: NCI-60 database, sulforhodamine B, read-out: Cytotoxic IC50; cited from earlier work.
The next series has as its system RXF 393. As to conditions: RXF 393, NCI-60 database, sulforhodamine B; read-out: Cytotoxic IC50; cited from earlier work.
For a further series, the system named is HCT-116. The following applies: HCT-116, NCI-60 database, sulforhodamine B; read-out: Cytotoxic IC50; cited from earlier work.
Another series concerns DU-145. As to conditions: DU-145, NCI-60 database, sulforhodamine B; read-out: Cytotoxic IC50; cited from earlier work.
A further series has as its system NCI/ADR-RES. The following applies: NCI-60 database, sulforhodamine B, read-out: Cytotoxic IC50; cited from earlier work.
The test system of the next series is CCRF-CEM. As to conditions: NCI-60 database, sulforhodamine B, read-out: Cytotoxic IC50; cited from earlier work.
For the next series, the system named is BT-549. As to conditions: BT-549, NCI-60 database, sulforhodamine B; read-out: Cytotoxic IC50; cited from earlier work.
A further series deals with HS 578T. As to conditions: NCI-60 database, sulforhodamine B, read-out: Cytotoxic IC50; cited from earlier work.
The next series relates to MDA-MB-435. The following applies: MDA-MB-435, NCI-60 database, sulforhodamine B; read-out: Cytotoxic IC50; cited from earlier work.
In the next series the test system is CAKI-1. As to conditions: CAKI-1, NCI-60 database, sulforhodamine B; read-out: Cytotoxic IC50; cited from earlier work.
The test system of the next series is MALME-3M. The following applies: NCI-60 database, sulforhodamine B, read-out: Cytotoxic IC50; cited from earlier work.
Another series concerns A498. The following applies: A498, NCI-60 database, sulforhodamine B; read-out: Cytotoxic IC50; cited from earlier work.
The test system of the next series is SK-MEL-28. The following applies: SK-MEL-28, NCI-60 database, sulforhodamine B; read-out: Cytotoxic IC50; cited from earlier work.
A further series deals with COLO 205. As to conditions: COLO 205, NCI-60 database, sulforhodamine B; read-out: Cytotoxic IC50; cited from earlier work.
In series [2] the test system is Dunning R-3327-H prostate carcinoma. The following applies: cited from earlier work.
The conditions of series [3]: Nagy et al.; cited from earlier work.
In series [4] the test system is nitrosamine-induced pancreatic cancers. The following applies: intraperitoneal, total dose of 100 nmol/kg; cited from earlier work.
Series [5] concerns Lewis Lung Carcinoma (LLC) tumor. As to the kind of experiment: Mouse Lewis lung carcinoma (LLC) model. It is filed as in vivo, C57BL/6 mice. As to conditions: single intravenous dose; cisplatin 5 mg/kg, LiPyDau 1 mg/kg. The protocol: FIG. 6. Anti-tumor effect of LiPyDau and cisplatin in the mouse Lewis lung cancer (LLC) lung carcinoma model. C57BL/6 mice received sc. injection of 2×10^5 LLC cells in 100 μl PBS. When the tumors were palpable, mice were randomized to receive a single intravenous dose of cisplatin (5 mg/kg) or LiPyDau (1 mg/kg) as indicated by the arrow. Control mice were treated with saline.
Mouse melanoma (B16), lung (Lewis lung carcinoma, LLC) and breast (4T1-LUC) cancer cell lines were used to establish allograft tumors for drug testing. 5×10^5 B16 or 2×10^5 LLC cells were inoculated subcutaneously in 200 μl serum-free culture media. 4T1-LUC tumors were established by injecting 1×10^6 cells in 20 μl serum-free culture media through the nipple directly to the breast tissue of 8 weeks old BALB/c mice on day 0). […] For the B16, LLC and 4T1-LUC tumor models 4, 6 and 6 mice were treated with LiPyDau while 4, 3 and 6 animals were in the saline treated groups, respectively.

Another series concerns A431. Description: In vitro cytotoxicity. Type of series: cell-based. An excerpt:
(§1) Experiments were repeated at least 3 times.

A further series relates to MES-SA. As to the kind of experiment: In vitro cytotoxicity. Type of series: cell-based. As to conditions: read-out: IC50.
Description: as §1

The subject of a further series is P388/ADR. Description: In vitro cytotoxicity. It is filed as cell-based. The following applies: read-out: IC50.
Description: as §1

In the next series the test system is MES-SA/Dx5. Description: In vitro cytotoxicity. Type of series: cell-based. As to conditions: MES-SA/Dx5; read-out: IC50.
Description: as §1

A further series relates to A431-B1. As to the kind of experiment: In vitro cytotoxicity. It is filed as cell-based.
Description: as §1

In another series the test system is P388. As to the kind of experiment: In vitro cytotoxicity. It is filed as cell-based.
Description: as §1

The next series relates to A431-G2. As to the kind of experiment: In vitro cytotoxicity. It is filed as cell-based.
Description: as §1

Here are results for four compounds from patent publication US20250032525A1 (priority 2021, published 2025).

Each structure is given as a SMILES string. Like-named read-outs stand apart in the source and are kept apart here.

On to `CC(=O)O[C@H]1C(=O)[C@@]2(C)[C@H]([C@H](OC(=O)c3ccccc3)[C@]3(O)C[C@H](OC(=O)[C@H](O)[C@@H](NC(=O)c4ccccc4)c4ccccc4)C(C)=C1C3(C)C)[C@]1(OC(C)=O)CO[C@@H]1C[C@@H]2O` [paclitaxel], for which the Tumor growth entry in series [1] is “failed to exert any effect on tumor growth”.
As to `COc1cccc2c1C(=O)c1c(O)c3c(c(O)c1C2=O)C[C@@](O)(C(C)=O)C[C@@H]3O[C@H]1C[C@H](N)[C@H](O)[C@H](C)O1` [Dau, daunorubicin], the IC50 in the series on OVCAR-5 was 155 nM; in the series on HCT-15, 650 nM; in the series on EKVX, 360 nM; in the series with SW-620, 35.5 nM; in the series on HL-60(TB), 31.2 nM; in the series with SK-MEL-2 it was 158 nM. The IC50 is 124 nM with OVCAR-3; 175 nM in the series with UO-31; 201 nM in the series on MDA-MB-231; 112 nM with NCI-60 cell lines (read-out: Cytotoxic IC50, av. breast); 145 nM with NCI-60 cell lines (read-out: Cytotoxic IC50, av. colorectal); 27 nM in the series with NCI-60 cell lines (read-out: Cytotoxic IC50, av. leukaemia). Besides, the concentration for half-maximal inhibition (IC50) with NCI-60 cell lines (read-out: Cytotoxic IC50, av. lung) was 157 nM; with NCI-60 cell lines (read-out: Cytotoxic IC50, av. melanoma), 113 nM; in the series on NCI-60 cell lines (read-out: Cytotoxic IC50, av. ovarian), 388 nM; with NCI-60 cell lines (read-out: Cytotoxic IC50, av. prostatic), 92.2 nM; in the series with NCI-60 cell lines (read-out: Cytotoxic IC50, av. renal), 158 nM; in the series on MCF7, 19.5 nM. Further, the 50% inhibitory concentration (IC50) in the series with HCC-2998 is 99.3 nM; in the series with HT29, 50.7 nM; in the series on HOP-62 it was 53 nM; with PC-3, 108 nM; in the series on PANC-1, 260 nM; in the series on OVCAR-8, 41.6 nM. The IC50 was 46.5 nM in the series with NCI-H226; 95.9 nM in the series on KM12; 40.8 nM with T-47D; 92.5 nM in the series with RXF 393; 28.6 nM in the series with HCT-116; 76.7 nM with DU-145. Also, the IC50 with NCI/ADR-RES was 1230 nM; in the series on CCRF-CEM, 22.8 nM; with BT-549, 153 nM; in the series on HS 578T it was 120 nM; in the series with MDA-MB-435, 137 nM; in the series with CAKI-1, 229 nM. Also, the IC50 in the series on MALME-3M was 49.7 nM; with A498, 137 nM; in the series with SK-MEL-28, 132 nM; in the series with COLO 205 it was 52.5 nM.
As to `COc1cccc2c1C(=O)c1c(O)c3c(c(O)c1C2=O)C[C@@](O)(C(=O)CO)C[C@@H]3O[C@H]1C[C@H](N2C=CCC2)[C@H](O)[C@H](C)O1` [PyDox, 2-pyrrolino-doxorubicin], in series [2] (3×25 nmol/kg, rats), the Animals that died is given as 6 of 10. Also, the “Change in the number of mitotic or apoptotic cells” value in series [2] (after treatment in rats) is recorded as “no significant change in the number of mitotic or apoptotic cells”. In series [2] (dose of 50 nmol/kg, rats), the Mortality result was “death of all rats”. Also, in series [3], the “Potency in vitro relative to Dox” value is 500-1000 times. In [4], the Hamsters that died is listed as 16 of 18.
Consider `N.N.[Cl][Pt][Cl]` [Cisplatin, cisplatin], for which the Tumor growth entry in series [5] is reported as “did not have any measurable effect on tumor growth”. Also, the IC50 in the series with A431 turned out to be 3860 nM; with MES-SA, 7580 nM; with P388/ADR, 1180 nM; in the series on MES-SA/Dx5, 12500 nM; in the series on A431-B1 it was 3950 nM; in the series with P388, 610 nM. In the series with A431-G2, the half-maximal inhibitory concentration (IC50) stood at 1950 nM.

Usually IC50 stands for the concentration that gives 50% inhibition.
